{"source": "patent US20230181463A1", "about": "“OLEOGEL AND OLEOPASTE COMPOSITIONS AND USES THEREOF” (Massachusetts Institute of Technology, priority 2020, published 2023)", "key": {"[1]": {"assay": "In silico pharmacokinetic modelling of AZT oleogels", "conditions": "first order fit to in vitro release data", "description": "In vivo pharmacokinetics of the various formulations were calculated using the data obtained from in vitro release studies. To achieve this, pharmacokinetic modeling studies were conducted in two steps. In the first step, first order equations to in vitro release data were used to estimate rate constant for drug release (krel) and the extent of drug release (Agel, t=0). The rate constant of drug release was considered a measure of the speed of drug release. The extent of drug release or Agel, t=0 was a measure of the total amount of drug that could be released from the formulation at 90 min, which likely depended on the partition coefficient for AZT between the oily formulation and aqueous release medium. […] In the second step, one-compartment oral drug administration model was constructed. Using krel and Agel, t=0 as input, pharmacokinetic parameters such as maximum concentration (Cmax), time to maximum concentration (Tmax) and serum drug exposure or area under the curve (AUCfit) were determined. […]"}, "[2]": {"assay": "Drug release from AZT oleogels in lipolysis medium (simulated intestinal fluid)", "type": "in vitro ADME", "conditions": "in vitro release over 90 minutes, trapezoidal rule, triplicates", "experimental": "Extensive in vitro release studies were conducted to understand the impact of oil, solubilizer and gelling agent on the release of AZT in simulated intestinal fluid (SIF).\nPreparation of lipolysis buffer: To prepare lipolysis buffer, tris-maleate (0.474 g), calcium chloride dihydrate (0.275 g), sodium chloride (8.766 g) were weighed and distilled water was added to bring the volume to 1 L. The pH of the buffer was adjusted to pH 6.5 using 5N sodium hydroxide.\nPreparation of lipolysis media: L—a phosphotidylcholine (0.576 g/l) and sodium taurodeoxycholate hydrate (1.619 g/l) were added to the lipolysis buffer. Next, the solution was stirred overnight to dissolve all ingredients.\nPreparation of pancreatin solution: Three grams of pancreatin was added to 15 ml of lipolysis buffer and stirred on a magnetic stir plate for 10 minutes. The mixture was centrifuged at 28000g, at 5° C. for 10 minutes. The supernant was collected and the pH of the supernant was adjusted to pH 6.5 using 5N sodium hydroxide solution.\nPreparation of negative control: To avoid the technical difficulty in material weighing, 40 mg of AZT powder was dispersed into 10 ml of methanol. It was sonicated for 1 minute to get a clear solution. One milliliter was taken into 3 separate Falcon tube and remained still to evaporate the solvent. […]"}}, "data": [{"smiles": "CC[C@H]1OC(=O)[C@H](C)[C@@H](O[C@H]2C[C@@](C)(OC)[C@@H](O)[C@H](C)O2)[C@H](C)[C@@H](O[C@@H]2O[C@H](C)C[C@H](N(C)C)[C@H]2O)[C@](C)(O)C[C@@H](C)CN(C)[C@H](C)[C@@H](O)[C@]1(C)O", "note": "[Control, azithromycin]", "values": [{"measurement": "average krel", "setting": "[1]", "result": 5.28, "unit": "h⁻¹"}, {"measurement": "Average Agel, t=0", "setting": "[1]; 4.00 mg AZT put in", "result": 3.98, "unit": "mg"}, {"measurement": "Average AUC", "setting": "[2]", "result": 127.23, "unit": "µg·h/mL"}]}]}
